{"source": "patent US20110275667A1", "about": "“COMPOSITIONS USEFUL FOR TREATING GASTROESOPHAGEAL REFLUX DISEASE” (EDUSA Pharmaceuticals, Inc., priority 2007, published 2011)", "key": {"healthy volunteers [1]": {"system": "healthy volunteers", "assay": "Phase 1b clinical trial: reflux related symptoms (heartburn, regurgitation, acid taste) associated with refluxogenic meal", "assay_type": "in vivo, human", "conditions": "0.5 mg, 0.8 mg and 1.4 mg", "experimental": "In addition to assessment of the LESP and number of reflux events, subjects were also assessed on Days 1 and 8 to determine the frequency of the following symptoms: heartburn; regurgitation; and acid taste associated with the refluxogenic meal.\n(§1) • Primary: Reduction in esophageal reflux during a provocative procedure (following a refluxogenic meal) as measured by MII-pH; • Secondary: • (a) Change in reflux related symptoms (heartburn, regurgitation, acid taste) associated with ingestion of a refluxogenic meal; and • (b) Change in lower esophageal sphincter pressure."}, "healthy volunteers [2]": {"system": "healthy volunteers", "assay": "Phase 1b crossover clinical trial: reflux events measured by multichannel intraluminal impedance and pH (MII-pH) after a refluxogenic meal", "assay_type": "in vivo, human", "experimental": "The clinical trial reported here was a Phase 1b, randomized, double-blind placebo-controlled, crossover study. In the Study, 28 healthy volunteers were administered doses of DDP733 (0.5, 0.8 and 1.4 mg) and placebo and then given a refluxogenic meal. For a period of two hours after completion of the refluxogenic meal, reflux events were measured using intraesophageal impedance.\nPhase 1b, randomized, double-blinded, placebo controlled, crossover study.\nThree Study Periods: Total Number of Visits=4 • (1) Ten-day screening period (2 visits); • (2) Two week treatment period (Days 1-14) (2 visits: Day 1 which is on the same day as the second screening visit, and Day 8); and • (3) One day end of study period (1 visit).\nSubjects were randomized into a treatment group on Day 1 (the same day as visit 2 of the screening period). For the completed study, each subject was exposed to one of the dose levels of DDP733 (i.e., 0.5 mg, 0.8 mg and 1.4 mg) and to placebo in randomized sequence to complete approximately one week of dosing with each of the two dosing regimens (DDP733 and placebo). The six treatment sequences were:\nFor example, there were 7 subjects in the study who received the 0.5 mg dose of DDP733. At the commencement of dosing period 1, three subjects in the 0.5 mg group received placebo and 4 subjects received 0.5 mg of drug. […]\n(§2) After randomization, subjects received a first dose of study medication (Day 1). The medication was administered under supervision and the subjects were then evaluated by manometry to assess LES position and pressure and by a multichannel intraluminal impedance and pH (MII-pH) procedures to measure the number of reflux events following ingestion of a refluxogenic meal (sausage and egg breakfast sandwich and 8 oz. cup of coffee). […]\n• Primary: Reduction in esophageal reflux during a provocative procedure (following a refluxogenic meal) as measured by MII-pH; • Secondary: • (a) Change in reflux related symptoms (heartburn, regurgitation, acid taste) associated with ingestion of a refluxogenic meal; and • (b) Change in lower esophageal sphincter pressure. […]"}, "gastric acid": {"system": "gastric acid", "conditions": "cited from earlier work"}, "healthy volunteers [3]": {"system": "healthy volunteers", "assay": "Phase 1b clinical trial: safety and tolerability (vital signs, adverse events, clinical laboratory testing, ECGs)", "assay_type": "in vivo, human", "source_text": "Characterize the safety and tolerability of DDP733 in volunteers.\nSafety measurements included monitoring of vital signs and adverse events, clinical laboratory testing and performance of electrocardiograms (ECGs)."}, "healthy volunteers [4]": {"system": "healthy volunteers", "assay": "Phase 1b clinical trial: lower esophageal sphincter pressure (LESP) by manometry", "assay_type": "in vivo, human", "conditions": "0.5 mg, 0.8 mg and 1.4 mg", "experimental": "as §2, with “coffee). The supervised dose was the only dose administered on this initial day of testing (Day 1). Subjects continued dosing for a further five day, then had one day with no study medication before returning for the next visit on Day 8. The same procedure was performed on Day 8 of the treatment period (i.e., the first day of the second dosing period).” for “coffee).”\nas §1"}, "Humans": {"system": "Humans", "conditions": "cited from earlier work"}}, "note": "Where two headings read alike, the source gives them in different places."}
{"compound": "O=C(N[C@H]1CN2CCC1CC2)c1c[nH]c2ccsc2c1=O", "note": "[DDP733, (R)—N-1-azabicyclo[2.2.2]oct-3-yl-4,7-dihydro-7-oxothieno[3,2-b]pyridine-6-carboxamide]", "values": [{"measurement": "reflux related symptoms versus placebo (secondary endpoint)", "setting": "healthy volunteers [1]", "result": "no statistically significant differences"}, {"measurement": "statistical significance on primary clinical endpoint of reduction in the number of reflux events versus placebo", "setting": "healthy volunteers [2]; 0.5 mg dose, p=0.0313, Wilcoxon signed-rank test", "result": "achieved statistical significance"}, {"measurement": "reduction in the number of reflux events versus placebo", "setting": "healthy volunteers [2]; 0.8 mg dose", "result": "did not show a statistically significant reduction"}, {"measurement": "reduction in the number of reflux events versus placebo", "setting": "healthy volunteers [2]; 1.4 mg dose", "result": "did not show a statistically significant reduction"}, {"measurement": "gastric acid suppressing activity", "setting": "gastric acid", "result": "has gastric acid suppressing activity"}, {"measurement": "adverse events (AEs) leading to discontinuation", "setting": "healthy volunteers [3]; all doses", "result": "no adverse events (AEs) leading to discontinuation"}, {"measurement": "significant adverse events (SAEs)", "setting": "healthy volunteers [3]; all doses", "result": "no significant adverse events (SAEs) reports"}, {"measurement": "safety and tolerability", "setting": "healthy volunteers [3]; all doses (0.5, 0.8, 1.4 mg)", "result": "safe and well tolerated"}, {"measurement": "time to resolution of drug related adverse events", "setting": "healthy volunteers [3]; did not require medication", "result": "1 to 5", "unit": "days"}, {"measurement": "liver or cardiac abnormalities", "setting": "healthy volunteers [3]; human, in vivo", "result": "No liver or cardiac abnormalities were observed"}, {"measurement": "severity of drug related adverse events (nausea, vomiting, pruritus, rash, rash macular, flush/hot flush, abdominal pain/discomfort)", "setting": "healthy volunteers [3]; human, in vivo", "result": "mild/moderate"}, {"measurement": "LESP versus placebo (secondary endpoint)", "setting": "healthy volunteers [4]", "result": "no statistically significant differences"}, {"measurement": "effect on increasing gastric emptying", "setting": "Humans; 0.2 mg dose", "result": "no significant effect"}, {"measurement": "effect on the fundus", "setting": "Humans; 0.2 mg dose", "result": "no significant effect"}, {"measurement": "effect on increasing gastric emptying", "setting": "Humans; 1.0 mg dose", "result": "no significant effect"}, {"measurement": "effect on the fundus", "setting": "Humans; 1.0 mg dose", "result": "no significant effect"}, {"measurement": "effect on gastric emptying", "setting": "Humans; 4.0 mg dose", "result": "delays gastric emptying"}, {"measurement": "effect on the fundus", "setting": "Humans; 4.0 mg dose", "result": "relaxes the fundus"}]}
